The values below come from ChEMBL document CHEMBL2364335, “Structure-activity relationship data for chemical series of achiral agonists of the ghrelin (growth hormone secretagogue) receptor (Supplementary Bioactivity Data for publication CHEMBL1140573)”.

The target of this assay is Growth hormone secretagogue receptor type 1 (Homo sapiens, UniProt Q92847). The experiment in a line: SUPPLEMENTARY: Agonist activity at GSHR by FLIPR assay. Same assay as CHEMBL941945. The class given is functional.
Chain of Growth hormone secretagogue receptor type 1 (Q92847 whole entry): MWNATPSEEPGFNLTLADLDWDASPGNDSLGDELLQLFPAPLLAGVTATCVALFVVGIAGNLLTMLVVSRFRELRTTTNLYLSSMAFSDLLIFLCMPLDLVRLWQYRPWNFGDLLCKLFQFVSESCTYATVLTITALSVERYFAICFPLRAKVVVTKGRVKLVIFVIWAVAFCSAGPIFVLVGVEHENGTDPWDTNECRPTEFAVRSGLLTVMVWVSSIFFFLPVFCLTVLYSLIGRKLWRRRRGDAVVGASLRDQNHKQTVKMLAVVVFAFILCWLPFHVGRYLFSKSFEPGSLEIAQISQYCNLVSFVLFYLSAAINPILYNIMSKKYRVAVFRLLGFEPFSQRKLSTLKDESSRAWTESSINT
Regarding `COc1ccc(N2C[C@@H](C)N[C@@H](C)C2)cc1NS(=O)(=O)c1ccc(-c2ccc(Cl)s2)cc1`, the EC50 is 12.6 nM. With `Cc1ccc(-c2ccc(S(=O)(=O)Nc3cccc(N4C[C@@H](C)N[C@@H](C)C4)n3)cc2F)o1`, a half-maximal effect (EC50) was put at 1 nM.

Take `Cc1ccc(-c2ccc(S(=O)(=O)Nc3ccnc(N4C[C@@H](C)N[C@@H](C)C4)n3)cc2F)o1`: the EC50 was 31.6 nM. This EC50 lies about 32-fold higher than the previous one. The result for `Cc1ccc(-c2ccc(S(=O)(=O)Nc3cc(N4C[C@@H](C)N[C@@H](C)C4)ccn3)cc2F)o1` reads 20 nM; that for `COc1ncc(N2C[C@@H](C)N[C@@H](C)C2)cc1NS(=O)(=O)c1ccc(-c2ccc(C)o2)c(F)c1`, 63.1 nM; that for `COc1ccc(N2C[C@@H](C)N[C@@H](C)C2)nc1NS(=O)(=O)c1ccc(-c2cc(C)cs2)cc1Cl`, 5.01 nM. Consider `Cc1ccc(-c2ccc(S(=O)(=O)Nc3cc(N4C[C@@H](C)N[C@@H](C)C4)c[nH]c3=O)cc2F)o1`, for which the EC50 was 10 nM. This EC50 lies about 2-fold higher than the previous one.

`COc1ccc(N2C[C@@H](C)N[C@@H](C)C2)nc1NS(=O)(=O)c1ccc(-c2ccoc2)cc1Cl`: the midpoint of the response, the EC50, lay at 25.1 nM. The result for `COc1ccc(NS(=O)(=O)c2sc3ccc(Cl)cc3c2C)cc1N1C[C@@H](C)N[C@@H](C)C1` reads 31.6 nM; that for `COc1ccc(NS(=O)(=O)c2ccc3ccccc3c2)cc1N1C[C@@H](C)N[C@@H](C)C1`, 15.8 nM. `COc1ccc(NS(=O)(=O)c2cccc3ccccc23)cc1N1C[C@@H](C)N[C@@H](C)C1` showed an EC50 of 31.6 nM. The result for `COc1ccc(NS(=O)(=O)/C=C/c2ccccc2)cc1N1C[C@@H](C)N[C@@H](C)C1` reads 15.8 nM; that for `COc1ccc(NS(=O)(=O)c2ccc(Oc3ccccc3)cc2)cc1N1C[C@@H](C)N[C@@H](C)C1`, 126 nM; that for `COc1ccc(NS(=O)(=O)c2cccc3cccnc23)cc1N1C[C@@H](C)N[C@@H](C)C1`, 398 nM. The result for `COc1ccc(NS(=O)(=O)c2ccc(Cl)c(Cl)c2)cc1N1C[C@@H](C)N[C@@H](C)C1` reads 63.1 nM. With `COc1ccc(NS(=O)(=O)c2ccc(-n3cccn3)cc2)cc1N1C[C@@H](C)N[C@@H](C)C1`, the EC50 was 6.31 nM. The result for `COc1ccc(NS(=O)(=O)c2ccc(-c3cccs3)cc2)cc1N1C[C@@H](C)N[C@@H](C)C1` reads 1 nM.

Take `COc1ccc(NS(=O)(=O)c2ccc(-c3cccc(C)n3)s2)cc1N1C[C@@H](C)N[C@@H](C)C1`: the 50% effective concentration (EC50) is 0.631 nM.

Turning to `COc1ccc(NS(=O)(=O)c2ccc(N3CCCC3=O)cc2)cc1N1C[C@@H](C)N[C@@H](C)C1`, the EC50 is 79.4 nM. The result for `COc1ccc(N2C[C@@H](C)N[C@@H](C)C2)cc1NS(=O)(=O)c1ccc2ccccc2c1` reads 7.94 nM; that for `COc1ccc(N2C[C@@H](C)N[C@@H](C)C2)cc1NS(=O)(=O)c1ccc(Br)s1`, 126 nM; that for `COc1ccc(N2C[C@@H](C)N[C@@H](C)C2)cc1NS(=O)(=O)c1ccc(-c2cccc(C)n2)cc1`, 10 nM. The result for `COc1ccc(N2C[C@@H](C)N[C@@H](C)C2)cc1NS(=O)(=O)c1ccc(-c2cccc(C)n2)s1` reads 10 nM; that for `COc1ccc(N2C[C@@H](C)N[C@@H](C)C2)cc1NS(=O)(=O)c1cccc(Cl)c1Cl`, 15.8 nM; that for `COc1ccc(N2C[C@@H](C)N[C@@H](C)C2)cc1NS(=O)(=O)c1cccc2cccnc12`, 50.1 nM. The result for `COc1ccc(N2C[C@@H](C)N[C@@H](C)C2)cc1NS(=O)(=O)c1ccc(Cl)c(Cl)c1` reads 50.1 nM. Regarding `COc1ccc(N2C[C@@H](C)N[C@@H](C)C2)cc1NS(=O)(=O)c1ccc(-c2cnco2)cc1`, the EC50 is 50.1 nM. This lies in the double-digit nanomolar range. Consider `COc1ccc(N2C[C@@H](C)N[C@@H](C)C2)cc1NS(=O)(=O)c1ccc(-c2cccnc2)cc1`, for which the response was half-maximal at 100 nM (EC50).

Consider `COc1ccc(N2C[C@@H](C)N[C@@H](C)C2)cc1NS(=O)(=O)c1ccc(-c2ccsc2)cc1`, for which the midpoint of the response, the EC50, lay at 5.01 nM. Against the preceding compound, the EC50 is about 20-fold lower.

Consider `COc1ccc(N2C[C@@H](C)N[C@@H](C)C2)cc1NS(=O)(=O)c1ccc(-c2cccnc2)s1`, for which the EC50 is 100 nM. The result for `COc1ccc(N2C[C@@H](C)N[C@@H](C)C2)cc1NS(=O)(=O)c1ccc(-c2ccsc2)s1` reads 5.01 nM. The result for `COc1ccc(NS(=O)(=O)c2ccc(-c3cccc(C)n3)cc2)cc1N1C[C@@H](C)N[C@@H](C)C1` reads 15.8 nM; that for `COc1ccc(N2C[C@@H](C)N[C@@H](C)C2)cc1NS(=O)(=O)c1cc2cc(Cl)ccc2s1`, 25.1 nM; that for `COc1ccc(NS(=O)(=O)c2ccc(-c3cnco3)cc2)cc1N1C[C@@H](C)N[C@@H](C)C1`, 39.8 nM. The result for `COc1ccc(N2C[C@@H](C)N[C@@H](C)C2)cc1NS(=O)(=O)c1cccc(Br)c1` reads 158 nM; that for `COc1cc(F)c(N2C[C@@H](C)N[C@@H](C)C2)cc1NS(=O)(=O)c1ccc(-c2cccs2)cc1`, 7.94 nM; that for `COc1cc(F)c(N2C[C@@H](C)N[C@@H](C)C2)cc1NS(=O)(=O)c1ccc(-c2ccccn2)s1`, 20 nM. Turning to `COc1ccc(N2C[C@@H](C)N[C@@H](C)C2)cc1NS(=O)(=O)c1ccc(-c2cccs2)s1`, a half-maximal response (EC50) required 3.98 nM.

For `C[C@@H]1CN(c2cc(NS(=O)(=O)c3ccc(-c4cccs4)cc3)ccc2C#N)C[C@H](C)N1`, the midpoint of the response, the EC50, lay at 100 nM.

On to `COc1ccc(Oc2cccc(S(=O)(=O)Nc3cc(N4C[C@@H](C)N[C@@H](C)C4)ccc3OC)c2)cc1`, for which the EC50 is 100 nM. The result for `COc1ccc(N2C[C@@H](C)N[C@@H](C)C2)cc1NS(=O)(=O)c1csc2ccccc12` reads 10 nM; that for `COc1ccc(N2C[C@@H](C)N[C@@H](C)C2)cc1NS(=O)(=O)c1sc2ccc(F)cc2c1C`, 31.6 nM. The result for `COc1ccc(NS(=O)(=O)c2ccc(-c3ccsc3)cc2)cc1N1C[C@@H](C)N[C@@H](C)C1` reads 2.51 nM; that for `COc1ccc(N2C[C@@H](C)N[C@@H](C)C2)cc1NS(=O)(=O)c1cccc(-c2cccs2)c1`, 15.8 nM. The result for `COc1ccc(NS(=O)(=O)c2ccc(-c3ccsc3)s2)cc1N1C[C@@H](C)N[C@@H](C)C1` reads 1.58 nM; that for `COc1ccc(NS(=O)(=O)c2ccc(-c3ccccc3)s2)cc1N1C[C@@H](C)N[C@@H](C)C1`, 1 nM; that for `C[C@@H]1CN(c2ccc(O)c(NS(=O)(=O)c3ccc(-c4ccccn4)s3)c2)C[C@H](C)N1`, 25.1 nM. The compound `COc1ccc(N2C[C@@H](C)N[C@@H](C)C2)cc1NS(=O)(=O)c1ccc2c(Cl)cccc2c1` showed an EC50 of 1.58 nM.

Take `COc1ccc(NS(=O)(=O)c2ccc(-c3cnco3)s2)cc1N1C[C@@H](C)N[C@@H](C)C1`: a half-maximal effect (EC50) was put at 39.8 nM. The result for `COc1ccc(N2C[C@@H](C)N[C@@H](C)C2)cc1NS(=O)(=O)c1ccc(-c2cnccc2OC)s1` reads 31.6 nM; that for `CCOc1ccc(N2C[C@@H](C)N[C@@H](C)C2)cc1NS(=O)(=O)c1ccc(-c2cccs2)cc1`, 12.6 nM; that for `CC(C)Oc1ccc(N2C[C@@H](C)N[C@@H](C)C2)cc1NS(=O)(=O)c1ccc(-c2cccs2)cc1`, 15.8 nM. In turn, `COc1ccc(NS(=O)(=O)c2ccc(Br)cc2C)cc1N1C[C@@H](C)N[C@@H](C)C1` had an EC50 of 39.8 nM. On to `C[C@@H]1CN(c2cccc(NS(=O)(=O)c3cccc4ccccc34)c2)C[C@H](C)N1`, for which a half-maximal response (EC50) required 10 nM. For the compound `COCc1cccc(-c2ccc(S(=O)(=O)Nc3cc(N4C[C@@H](C)N[C@@H](C)C4)ccc3OC)cc2)c1`, a half-maximal response (EC50) required 6.31 nM. The result for `C[C@@H]1CN(c2cccc(NS(=O)(=O)c3ccc4ccccc4c3)c2)C[C@H](C)N1` reads 15.8 nM. Regarding `C[C@@H]1CN(c2cccc(NS(=O)(=O)c3cccc(Cl)c3Cl)c2)C[C@H](C)N1`, the EC50 was 20 nM. This EC50 and that of the compound before are within 1.5-fold of each other. As to `C[C@@H]1CN(c2cccc(NS(=O)(=O)c3cc4ccccc4s3)c2)C[C@H](C)N1`, the EC50 was 31.6 nM. Against the preceding compound, the EC50 is about 1.6-fold higher. The result for `C[C@@H]1CN(c2cccc(NS(=O)(=O)c3ccc(-c4cccs4)cc3)c2)C[C@H](C)N1` reads 6.31 nM; that for `C[C@@H]1CN(c2cccc(NS(=O)(=O)c3ccc(-c4ccc(Cl)s4)cc3)c2)C[C@H](C)N1`, 25.1 nM. The result for `COc1ccc(NS(=O)(=O)c2ccc(-c3ccccc3C)cc2)cc1N1C[C@@H](C)N[C@@H](C)C1` reads 100 nM; that for `COc1ccc(N2C[C@@H](C)N[C@@H](C)C2)cc1NS(=O)(=O)c1ccc(-c2ccoc2)cc1`, 7.94 nM. The result for `COc1ccc(NS(=O)(=O)c2ccc(-c3cccs3)s2)cc1N1C[C@@H](C)N[C@@H](C)C1` reads 2 nM; that for `C[C@@H]1CN(c2cccc(NS(=O)(=O)c3ccc(-n4cccn4)cc3)c2)C[C@H](C)N1`, 25.1 nM.

Turning to `COc1ccc(NS(=O)(=O)c2ccc(Br)c(C)c2)cc1N1C[C@@H](C)N[C@@H](C)C1`, it took 39.8 nM to reach a half-maximal effect (EC50). The result for `COc1ccc(NS(=O)(=O)c2ccc(-c3cccs3)cc2F)cc1N1C[C@@H](C)N[C@@H](C)C1` reads 2.51 nM. In the case of `COc1ccc(NS(=O)(=O)c2ccc(-c3cccs3)cc2C)cc1N1C[C@@H](C)N[C@@H](C)C1`, the EC50 is 1 nM. This EC50 is about 2.5-fold lower than that of the compound before. In the case of `COc1ccc(NS(=O)(=O)c2ccc(-c3ccc(F)cc3)cc2)cc1N1C[C@@H](C)N[C@@H](C)C1`, the EC50 is 20 nM. `COc1ccc(NS(=O)(=O)c2ccc(-c3cccc(F)c3F)cc2)cc1N1C[C@@H](C)N[C@@H](C)C1` gave an EC50 of 31.6 nM. The result for `C[C@@H]1CN(c2ccc(F)c(NS(=O)(=O)c3ccc(-c4cccs4)cc3)c2)C[C@H](C)N1` reads 5.01 nM; that for `COc1ccc(N2C[C@@H](C)N[C@@H](C)C2)cc1NS(=O)(=O)c1ccc(-c2cc(C)cs2)s1`, 2 nM. `COc1ccc(NS(=O)(=O)c2ccc(-c3cc(C)cs3)s2)cc1N1C[C@@H](C)N[C@@H](C)C1` showed an EC50 of 0.794 nM.

As for `COc1ccc(NS(=O)(=O)c2ccc(-c3ccc(C)cc3)cc2)cc1N1C[C@@H](C)N[C@@H](C)C1`, the EC50 is 79.4 nM. For the compound `COc1ccc(N2C[C@@H](C)N[C@@H](C)C2)cc1NS(=O)(=O)c1ccc(-c2ccccc2C)s1`, the midpoint of the response, the EC50, lay at 25.1 nM. For the compound `COc1ccc(NS(=O)(=O)c2ccc(-c3ccccc3C)s2)cc1N1C[C@@H](C)N[C@@H](C)C1`, the EC50 was 50.1 nM. The result for `COc1ccc(NS(=O)(=O)c2ccc(-c3c(C)cccc3C)s2)cc1N1C[C@@H](C)N[C@@H](C)C1` reads 25.1 nM.

As a reminder, the EC50 is the midpoint of the concentration-response curve. Lower therefore signals higher potency in that assay.
